Measurements reported in patent US10975068B2, “6-aminopyridin-3-yl thiazoles as modulators of RORγT” (Janssen Pharmaceutica NV, priority 2016, dated 2021).
Where two headings read alike, the source gives them in different places.

How the values were obtained:
full-length human RORγt = full-length human RORγt (Homo sapiens (Human), UniProt P51449); test: RORγt (full-length human) reporter assay, Conditions B or C; type: cell-based; details: for inhibition at 3 µM: at 3 μM compound concentration; for RORγt (FL) Reporter Assay B or C, % inhibition (value marked *): marked *: footnote not given
Sequence of full-length human RORγt (P51449 other isoform, or with tags, fused parts or gaps): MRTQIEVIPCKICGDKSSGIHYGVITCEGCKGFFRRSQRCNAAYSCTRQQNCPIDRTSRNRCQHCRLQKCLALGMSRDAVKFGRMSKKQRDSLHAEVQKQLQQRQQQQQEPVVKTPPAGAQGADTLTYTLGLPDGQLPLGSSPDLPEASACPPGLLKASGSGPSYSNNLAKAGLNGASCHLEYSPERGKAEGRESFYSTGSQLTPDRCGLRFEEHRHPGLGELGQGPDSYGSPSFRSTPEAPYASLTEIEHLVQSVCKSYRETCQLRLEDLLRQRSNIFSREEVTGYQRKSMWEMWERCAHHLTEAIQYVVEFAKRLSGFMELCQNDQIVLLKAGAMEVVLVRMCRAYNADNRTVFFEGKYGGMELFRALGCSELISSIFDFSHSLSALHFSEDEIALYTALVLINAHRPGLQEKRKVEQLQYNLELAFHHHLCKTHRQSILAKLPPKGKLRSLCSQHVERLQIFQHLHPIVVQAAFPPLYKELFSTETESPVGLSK
How it was run: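 Readout is dual luciferase: firefly (GAL4-driven) normalized to DMSO-only and saturating-reference controls, then to CMV-Renilla. Full-length human RORγt fused to GAL4-DBD was transiently expressed in HEK293T; compound exposure ran overnight (16-20 h) starting 4-6 h after transfection, final FBS 1.3%, DMSO 0.1%.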

[1] = target: human RORγt ligand binding domain (RORγt LBD) (Homo sapiens (Human), UniProt P51449); test: RORγt ThermoFluor® assay (thermal shift binding); details: read-out: ThermoFluor® Assay, Kd
Sequence of human RORγt ligand binding domain (RORγt LBD) (P51449 other isoform, or with tags, fused parts or gaps): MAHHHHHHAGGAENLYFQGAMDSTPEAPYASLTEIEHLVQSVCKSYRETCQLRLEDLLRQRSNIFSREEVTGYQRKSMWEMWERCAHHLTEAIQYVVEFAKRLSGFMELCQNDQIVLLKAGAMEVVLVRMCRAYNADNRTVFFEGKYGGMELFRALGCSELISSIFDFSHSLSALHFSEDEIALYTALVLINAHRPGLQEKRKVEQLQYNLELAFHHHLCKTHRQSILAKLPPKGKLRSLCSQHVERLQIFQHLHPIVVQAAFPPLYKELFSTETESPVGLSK
How it was run: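 Binding was inferred from thermal stabilisation (ΔTm) of the E. coli-expressed RORγt LBD (0.065 mg/mL), monitored by 1,8-ANS (60 μM) emission at 500 nm during a 1 °C/min ramp. Buffer was Hepes 100 mM pH 7.0 with NaCl, GSH and Tween-20.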

[2] = Conditions B or C, read-out: RORγt (FL) Reporter Assay B or C, IC50
[3] = read-out: RORγt (FL) Reporter Assay B or C, % inhibition
[4] = read-out: RORγt (FL) Reporter Assay B or C, IC50

| SMILES | IC50 (full-length human RORγt; [2]) [µM] | Kd [1] [µM] | inhibition at 3 µM (full-length human RORγt; [3]) [%] | IC50 (full-length human RORγt; [4]) [µM] | RORγt (FL) Reporter Assay B or C, % inhibition (value marked *) (full-length human RORγt; Conditions B or C) | further results |
| --- | --- | --- | --- | --- | --- | --- |
| C[C@H]1CC(F)(F)CN1C(=O)c1nc(C(=O)NCC(C)(C)O)sc1-c1cnc(NCC(C)(C)C)cc1C(F)(F)F [Example 85, (S)-4-(4,4-Difluoro-2-methylpyrrolidine-1-carbonyl)-N-(2-hydroxy-2-methylpropyl)-5-(6-(neopentylamino)-4-(trifluoromethyl)pyridin-3-yl)thiazole-2-carboxamide] | 0.027 | 0.00053 | – | – | – | RORγt (FL) Reporter Assay B or C, % inhibition (value marked ***) (full-length human RORγt; Conditions B or C, marked ***: footnote not given): 128*** % |
| CNC(=O)c1nc(C(=O)N2CCC[C@@H]2C)c(-c2cnc(NC(C)(C)C)cc2C(F)(F)F)s1 [Example 307, (S)-5-(6-(tert-Butylamino)-4-(trifluoromethyl)pyridin-3-yl)-N-methyl-4-(2-methylpyrrolidine-1-carbonyl)thiazole-2-carboxamide] | – | 0.043 | 102 | 0.15 | – | – |
| C[C@H]1CCCN1C(=O)c1nc(C(=O)N2CCC(C)(O)C2)sc1-c1cnc(NC(C)(C)C)cc1C(F)(F)F (stereo partly drawn) [Example 364, (5-(6-(tert-Butylamino)-4-(trifluoromethyl)pyridin-3-yl)-2-(3-hydroxy-3-methylpyrrolidine-1-carbonyl)thiazol-4-yl)((S)-2-methylpyrrolidin-1-yl)methanone] | – | 0.0079 | 111 | 0.039 | – | – |
| C[C@H]1CCCN1C(=O)c1nc(C(=O)NCC(C)(O)C(F)(F)F)sc1-c1cnc(NC(C)(C)C)cc1C(F)(F)F (stereo partly drawn) [Example 357, 5-(6-(tert-Butylamino)-4-(trifluoromethyl)pyridin-3-yl)-4-((S)-2-methylpyrrolidine-1-carbonyl)-N-(3,3,3-trifluoro-2-hydroxy-2-methylpropyl)thiazole-2-carboxamide] | – | 0.0012 | 106 | 0.012 | – | – |
| C[C@H]1CCCN1C(=O)c1nc(C(=O)N(C)CC(C)(C)O)sc1-c1cnc(NC(C)(C)C)cc1C(F)(F)F [Example 340, 5-[6-(tert-Butylamino)-4-(trifluoromethyl)-3-pyridyl]-N-(2-hydroxy-2-methyl-propyl)-N-methyl-4-[(2S)-2-methylpyrrolidine-1-carbonyl]thiazole-2-carboxamide] | – | 0.0053 | 111 | 0.011 | – | – |
| C[C@H]1CCCCN1C(=O)c1nc(C(=O)NCC(C)(C)O)sc1-c1cnc(NC(C)(C)C2CC2)cc1C(F)F [Example 88, (S)-5-(6-((2-Cyclopropylpropan-2-yl)amino)-4-(difluoromethyl)pyridin-3-yl)-N-(2-hydroxy-2-methylpropyl)-4-(2-methylpiperidine-1-carbonyl)thiazole-2-carboxamide] | 0.01 | 0.00019 | – | – | 138* % | – |
| C[C@H](Nc1cc(C(F)(F)F)c(-c2sc(C(=O)N[C@@H]3CCC[C@@H]3O)nc2C(=O)N2CC(F)(F)C[C@@H]2C)cn1)C1CC1 [Example 201, 5-(6-(((S)-1-Cyclopropylethyl)amino)-4-(trifluoromethyl)pyridine-3-yl)-4-((S)-4,4-difluoro-2-methylpyrrolidine-1-carbonyl)-N-((1R,2S)-2-hydroxycyclopentyl)thiazole-2-carboxamide] | 0.016 | 0.00061 | – | – | 102* % | – |
| C[C@H]1CC(F)(F)CN1C(=O)c1nc(C(=O)NCC(C)(C)O)sc1-c1cnc(NCC(C)(C)C(F)(F)F)cc1C(F)(F)F [Example 121, (S)-4-(4,4-Difluoro-2-methylpyrrolidine-1-carbonyl)-N-(2-hydroxy-2-methylpropyl)-5-(6-((3,3,3-trifluoro-2,2-dimethylpropyl)amino)-4-(trifluoromethyl)pyridin-3-yl)thiazole-2-carboxamide] | 0.025 | 0.00065 | – | – | 104* % | – |
| C[C@H]1CCCN1C(=O)c1nc(C(=O)NCC(C)(C)O)sc1-c1cnc(NC(C)(C)CC(F)(F)F)cc1C(F)F [Example 296] | – | 0.0005 | 108 | 0.0071 | – | – |
| CC(C)(C)Nc1cc(C(F)F)c(-c2sc(C(=O)N[C@H]3CCC[C@@H]3O)nc2C(=O)N2C3CCC2CC3)cn1 [Example 440, 4-((1s,4s)-7-Azabicyclo[2.2.1]heptane-7-carbonyl)-5-[6-(tert-butylamino)-4-(difluoromethyl)-3-pyridyl]-N-[(1S,2S)-2-hydroxycyclopentyl]thiazole-2-carboxamide] | – | 0.00072 | 104 | – | – | IC50 (full-length human RORγt; RORγt (FL) Reporter Assay B or C, IC50): 0.031 µM |
| C[C@H]1CCCN1C(=O)c1nc(C(=O)N[C@@H]2CC[C@@H](O)C2)sc1-c1cnc(NC(C)(C)C)cc1C(F)F [Example 432, 5-[6-(tert-Butylamino)-4-(difluoromethyl)-3-pyridyl]-N-[(1R,3R)-3-hydroxycyclopentyl]-4-[(2S)-2-methylpyrrolidine-1-carbonyl]thiazole-2-carboxamide] | – | 0.0013 | – | 0.011 | – | inhibition at 0.33 µM (full-length human RORγt; at 0.33 μM compound concentration, read-out: RORγt (FL) Reporter Assay B or C, % inhibition): 122% |
| CC(C)(O)CNC(=O)c1nc(C(=O)N2C3CCC2CC3)c(-c2cnc(NC3CCCC3)cc2C(F)(F)F)s1 [Example 53, 4-((1s,4s)-7-Azabicyclo[2.2.1]heptane-7-carbonyl)-5-(6-(cyclopentylamino)-4-(trifluoromethyl)pyridin-3-yl)-N-(2-hydroxy-2-methylpropyl)thiazole-2-carboxamide] | 0.023 | 0.0058 | – | – | 109* % | – |
| C[C@H]1CCCN1C(=O)c1nc(C(=O)NCc2n[nH]c(=O)[nH]2)sc1-c1cnc(NC(C)(C)C)cc1C(F)(F)F [Example 302, (S)-5-(6-(tert-Butylamino)-4-(trifluoromethyl)pyridin-3-yl)-4-(2-methylpyrrolidine-1-carbonyl)-N-((5-oxo-4,5-dihydro-1H-1,2,4-triazol-3-yl)methyl)thiazole-2-carboxamide] | – | 0.049 | 86 | > 3 | – | – |
| C[C@H](Nc1cc(C(F)F)c(-c2sc(C(=O)NCC(C)(C)O)nc2C(=O)N2C3CCC2CC3)cn1)C1CC1 [Example 55, 4-((1s,4s)-7-Azabicyclo[2.2.1]heptane-7-carbonyl)-5-(6-(((S)-1-cyclopropylethyl)amino)-4-(difluoromethyl)pyridin-3-yl)-N-(2-hydroxy-2-methylpropyl)thiazole-2-carboxamide] | 0.031 | 0.0079 | – | – | 92* % | – |
| C[C@H]1CCCN1C(=O)c1nc(C(=O)NC2CCS(=O)(=O)CC2)sc1-c1cnc(NC(C)(C)C)cc1C(F)F [Example 435, 5-[6-(tert-Butylamino)-4-(difluoromethyl)-3-pyridyl]-N-(1,1-dioxothian-4-yl)-4-[(2S)-2-methylpyrrolidine-1-carbonyl]thiazole-2-carboxamide] | – | 0.0023 | 105 | 0.021 | – | – |
| C[C@H](Nc1cc(C(F)F)c(-c2sc(C(=O)N[C@H]3C[C@@H]3O)nc2C(=O)N2CCC[C@@H]2C)cn1)C(F)(F)F (relative stereo) [Example 223, 5-(4-(Difluoromethyl)-6-(((S)-1,1,1-trifluoropropan-2-yl)amino)pyridin-3-yl)-N-((1S*,2S*)-2-hydroxycyclopropyl)-4-((S)-2-methylpyrrolidine-1-carbonyl)thiazole-2-carboxamide] | 0.1 | 0.033 | – | – | 112* % | – |
| C[C@H](Nc1cc(C(F)(F)F)c(-c2sc(C(=O)NCC(C)(C)O)nc2C(=O)N2C3CCC2CC3)cn1)C(F)(F)F [Example 82, 4-((1s,4s)-7-Azabicyclo[2.2.1]heptane-7-carbonyl)-N-(2-hydroxy-2-methylpropyl)-5-(4-(trifluoromethyl)-6-(((S)-1,1,1-trifluoropropan-2-yl)amino)pyridin-3-yl)thiazole-2-carboxamide] | – | 0.0048 | – | – | 117* % | IC50 (full-length human RORγt; RORγt (FL) Reporter Assay B or C, IC50 (μM), Conditions B or C): 0.079 µM |
| C[C@H]1CCCN1C(=O)c1nc(C(=O)NC2CS(=O)(=O)C2)sc1-c1cnc(NC(C)(C)C)cc1C(F)(F)F [Example 260, 5-[6-(tert-Butylamino)-4-(trifluoromethyl)-3-pyridyl]-N-(1,1-dioxothietan-3-yl)-4-[(2S)-2-methylpyrrolidine-1-carbonyl]thiazole-2-carboxamide] | – | 0.0007 | 112 | 0.014 | – | – |
| CCC(C)(C)Nc1cc(C(F)(F)F)c(-c2sc(C(=O)NCC(C)(C)O)nc2C(=O)N2CCC[C@@H]2C)cn1 [Example 109, (S)—N-(2-Hydroxy-2-methylpropyl)-4-(2-methylpyrrolidine-1-carbonyl)-5-(6-(tert-pentylamino)-4-(trifluoromethyl)pyridin-3-yl)thiazole-2-carboxamide] | 0.018 | 0.00053 | – | – | 124* % | – |
| C[C@H]1CCCN1C(=O)c1nc(C(=O)N[C@H]2C[C@H](O)C2)sc1-c1cnc(N[C@H](C)C(F)(F)F)cc1C(F)F [Example 319, 5-(4-(Difluoromethyl)-6-(((R)-1,1,1-trifluoropropan-2-yl)amino)pyridin-3-yl)-N-((1r,3S)-3-hydroxycyclobutyl)-4-((S)-2-methylpyrrolidine-1-carbonyl)thiazole-2-carboxamide] | – | 0.029 | 91 | 0.079 | – | – |
